{"source": "ChEMBL document CHEMBL4041506", "about": "“Urea-containing peptide boronic acids as potent proteasome inhibitors” (Eur J Med Chem, 2017)", "key": {"[1]": {"test_system": "Mus musculus", "experiment": "Toxicity in human Bel7404 cells xenografted BALB/c mouse assessed as effect on body weight at 1 mg/kg, iv administered once in two days for 24 consecutive days measured on day 1 of compound dosing (reference value: 25.36 +/- 0.97 g)", "assay_type": "organism-based", "settings": "in vivo"}, "[2]": {"test_system": "BEL-7404 tumor cell line", "experiment": "Antitumor activity against human Bel7404 cells xenografted in BALB/c nude mouse assessed as effect on tumor volume at 1 mg/kg, iv administered once in two days for 24 consecutive days measured on day 6 of compound dosing relative to control", "assay_type": "functional"}, "[3]": {"test_system": "Mus musculus", "experiment": "Toxicity in human Bel7404 cells xenografted BALB/c mouse assessed as effect on body weight at 1 mg/kg, iv administered once in two days for 24 consecutive days measured on day 13 of compound dosing (reference value: 26.10 +/- 1.08 g)", "assay_type": "organism-based", "settings": "in vivo"}, "[4]": {"experiment": "Plasma concentration in Sprague-Dawley rat at 3 mg/kg, iv administered as bolus measured at 4 hrs by LC/MS/MS analysis", "assay_type": "ADME, organism-based"}, "[5]": {"test_system": "Mus musculus", "experiment": "Toxicity in human Bel7404 cells xenografted BALB/c mouse assessed as effect on body weight at 0.5 mg/kg, iv administered once in two days for 24 consecutive days measured on day 3 of compound dosing (reference value: 25.39 +/- 1 g)", "assay_type": "organism-based", "settings": "in vivo"}, "[6]": {"test_system": "BEL-7404 tumor cell line", "experiment": "Antitumor activity against human Bel7404 cells xenografted in BALB/c nude mouse assessed as effect on tumor volume at 0.5 mg/kg, iv administered once in two days for 24 consecutive days measured on day 13 of compound dosing relative to control", "assay_type": "functional"}, "[7]": {"test_system": "Mus musculus", "experiment": "Toxicity in human Bel7404 cells xenografted BALB/c mouse assessed as effect on body weight at 0.5 mg/kg, iv administered once in two days for 24 consecutive days measured on day 13 of compound dosing (reference value: 26.10 +/- 1.08 g)", "assay_type": "organism-based", "settings": "in vivo"}, "[8]": {"test_system": "BEL-7404 tumor cell line", "experiment": "Antitumor activity against human Bel7404 cells xenografted in BALB/c nude mouse assessed as effect on tumor volume at 2 mg/kg, iv administered once in two days for 24 consecutive days measured on day 20 of compound dosing relative to control", "assay_type": "functional"}, "[9]": {"test_system": "BEL-7404 tumor cell line", "experiment": "Antitumor activity against human Bel7404 cells xenografted in BALB/c nude mouse assessed as effect on tumor volume at 1 mg/kg, iv administered once in two days for 24 consecutive days measured on day 10 of compound dosing relative to control", "assay_type": "functional"}}, "data": [{"compound": "CC(C)C[C@H](NC(=O)[C@H](Cc1ccccc1)NC(=O)N1CCc2ccccc2C1)B(O)O", "values": [{"measurement": "Activity", "setting": "[1]", "result": 25.12, "unit": "g"}, {"measurement": "fold change (FC)", "setting": "[2]", "result": 1.72}, {"measurement": "Activity", "setting": "[3]", "result": 25.63, "unit": "g"}, {"measurement": "concentration at 4 h", "setting": "[4]", "result": 0.0175, "unit": "µg/mL"}, {"measurement": "Activity", "setting": "[5]", "result": 23.72, "unit": "g"}, {"measurement": "fold change (FC)", "setting": "[6]", "result": 3.18}, {"measurement": "Activity", "setting": "[7]", "result": 24.92, "unit": "g"}, {"measurement": "fold change (FC)", "setting": "[8]", "result": 3.7}, {"measurement": "fold change (FC)", "setting": "[9]", "result": 2.29}]}]}
